The values below come from US20240317764A1, “SALTS AND SOLID FORMS OF A COMPOUND HAVING APJ RECEPTOR ACTIVITY” (Annapurna Bio, Inc., priority 2022, published 2024).

The nature of data set [1]: Dog pharmacokinetic study after oral administration, plasma by LC-MS/MS. The following applies: for Cmax / AUC(0-t) / Tmax: male, Beagle, 30 mg/kg; for Cmax / AUC(0-t): mean; for Cmax: plasma Compound I; for AUC(0-t): t = 24 h; for Tmax: median value or range. In kind it is in vivo, male Beagle dogs. The procedure:
The objective of this study was to characterize the pharmacokinetics (PK) of Compound I in male Beagle dogs after oral (P0) administration. The P0 formulation was prepared in capsule or prepared in 0.50% or […] (methyl cellulose) in water at a concentration of 6 mg/mL for oral administration at 30 mg/kg.
LC-MS/MS for the PK studies was carried out using the following instruments/conditions.
Compound I Free acid Form A and Compound I choline salt Form A were formulated as an oral suspension at a target dose concentration of 6 mg/mL in 0.500 or 1% MC in water.
The dose was administered orally by gavage at a target dose volume of 5 mL/kg. Compound I choline salt Form A was also formulated as an oral capsule at a target dose concentration of 30 mg/kg. The formulation was prepared on the day of dosing and stored at room temperature prior to administration. The dose was administered orally by gavage to dogs. Following oral administration, blood samples were collected from […] at pre-dose, 0.083, 0.25, 0.5, 1, 2, 4, 8 and 24 h post dose.
The plasma concentration of Compound I was determined by liquid chromatography with mass spectrometric detection (LC-MS/MS).

Data set [2] can be described thus: Hygroscopicity by DVS at 25° C. between 0% RH and 95% RH, XRPD after DVS. In kind it is physicochemical. The following applies: for Water uptake, comparison between forms (in words): DVS at 25° C., 0% RH to 95% RH; for Water uptake (25° C./80% RH): DVS; for Form change after DVS: XRPD after DVS test. The procedure: DVS was measured via a SMS (Surface Measurement Systems) DVS Intrinsic. The relative humidity at 25° C. were calibrated against deliquescence point of LiCl, Mg(NO3)2 and KCl.
In order to evaluate the hygroscopicity of Compound I free acid Form A and re-prepared salt forms, DVS isotherm plots were collected at 25° C. between 0% RH and 95% RH. XRPD characterization was performed for the samples after DVS test.

Data set [3] can be described thus: Solid stability, 54 and 91 days (XRPD and HPLC purity). Format: physicochemical. The following applies: 25° C./60% RH or 40° C./75% RH.
Text: (§1) The re-prepared choline salt Form A was used for evaluation, including solubility and solid stability. Free acid Form A was selected as comparison for pH solubility and solid stability evaluation.
The conditions of data set [4]: pH buffers.
Text: as §1
The next data set is described as follows: physchem. The following applies: thermodynamic from solid.
Data set [5] in a line: Approximate solubility of Compound I free acid Form A in 14 solvents at RT. In kind it is physicochemical. The procedure:
Approximate solubility of starting material (Compound I free acid Form A) was determined in 14 solvents at RT. Approximately 2 mg of sample was added into a 3-mL glass vial. Solvents in Table 1-3 were then added stepwise into the vials until the solids were dissolved visually or a total volume of 2 mL was reached. Solubility results summarized in Table 1-1 were used to guide the solvent selection in screening experiment design.

Where [6] appears, read: compared to Compound I choline salt Form A.

Converted amounts (≈) assume the structure as drawn. “Also recorded” adds a separate entry of the source. Counter-ions that a name gives are not always drawn.

Experimental for physchem: The solubility of starting material (Compound I choline salt Form A) was estimated at room temperature (RT, ˜26° C.). Specifically, approximate 2 mg solid was added into HPLC glass vials. Solvents in Table 5-2 were then added stepwise (50/50/200/700 μL) into the vials until the solids were dissolved or a total volume of 1.0 mL was reached.

As a reminder, the Cmax is the highest concentration seen after dosing. As a reminder, the AUC(0-t) is the area under the concentration-time curve up to a stated or last time point. As a reminder, the Tmax is the time from dosing to the highest level. The term solubility denotes how much of the substance goes into solution per volume. Take `CCOc1cccc(-c2nc3ncc(NS(C)(=O)=O)nc3n2-c2c(OC)cccc2OC)n1` [Compound I choline salt Form A, N-(1-(2,6-dimethoxyphenyl)-2-(6-ethoxypyridin-2-yl)-1H-imidazo[4,5-b]pyrazin-6-yl)methanesulfonamide choline salt Form A]: the Cmax in data set [1] (plasma, po, capsule) stood at 11900 ng/mL; in data set [1] (plasma, po, suspension) it was 73800 ng/mL. Besides, the AUC(0-t) was found to be 145 µg·h/mL in data set [1] (plasma, po, capsule) and 1120 µg·h/mL in data set [1] (plasma, po, suspension). In addition, in data set [1] (plasma, po, suspension), the Tmax was in the range of 2 to 4 h. The “Pharmacokinetic profile (in words)” value in data set [1] (suspension and capsule) is listed as “excellent pharmacokinetic profiles”. In data set [1] (suspension or capsule), the “Mean AUClast and Cmax compared with free acid Form A suspension” value is “greater than that of Compound I free acid Form A”. Besides, in data set [2], the “Water uptake, comparison between forms (in words)” value (from here on “Water uptake … (in words)”) is “No significant difference”. Also, the “Water uptake (25° C./80% RH)” value in data set [2] came to 3.85%. Further, in data set [2], the “Form change after DVS” value is reported as “No”. Further, the “Solid stability: form change (XRPD) and HPLC purity” value in data set [3] and in data set [3] (listed as choline salt Form A) was “no form change or obvious HPLC purity decrease; also recorded: physically/chemically stable” each time. For the same molecule, the “pH solubility compared with free acid Form A” value in data set [4] is listed as “higher solubility than free acid Form A”. Further, the “Solubility in certain non-polar solvents (in words)” value (IPA, acetone, MEK, MIBK, ethyl acetate, isopropyl acetate, MTBE, THF, 2-MeTHF, CHCl3, n-heptane, toluene, DCM, 1,4-dioxane) is on record as “less soluble”. Besides, under “methanol, DMSO, and water”, the “Solubility in polar solvents (in words)” value was “good solubility”. Besides, the solubility in “physchem” (1,4-Dioxane, 26 °C, organic solvent or mixture) was less than 2100 µg/mL; in the data set “physchem” (2-Butanol, 26 °C, organic solvent or mixture) it was less than 1800 µg/mL; in the data set “physchem” (2-MeTHF, 26 °C, organic solvent or mixture) it was less than 1800 µg/mL; in the data set “physchem” (ACN, 26 °C, organic solvent or mixture), 7100 to 21400 µg/mL; in the data set “physchem” (ACN/IPAc (1:1), 26 °C, organic solvent or mixture), less than 2100 µg/mL; in “physchem” (ACN/IPAc (9:1), 26 °C, organic solvent or mixture), 2200 to 7300 µg/mL. For the same molecule, the solubility in the data set “physchem” (ACN/Toluene (1:1), 26 °C, organic solvent or mixture) is 2100 to 7000 µg/mL; in “physchem” (ACN/Toluene (9:1), 26 °C, organic solvent or mixture), 6300 to 18800 µg/mL; in “physchem” (Acetone/H2O (19:1), 26 °C, organic solvent or mixture), 7200 to 21600 µg/mL; in the data set “physchem” (CHCl3, 26 °C, organic solvent or mixture), less than 2100 µg/mL; in “physchem” (CPME, 26 °C, organic solvent or mixture), less than 1800 µg/mL; in the data set “physchem” (DCM, 26 °C, organic solvent or mixture), less than 2100 µg/mL. The solubility in “physchem” (DMF, 26 °C, organic solvent or mixture) is 20200 to 40400 µg/mL; in “physchem” (DMSO, 26 °C, organic solvent or mixture) it was 18800 to 37600 µg/mL; in the data set “physchem” (EtOAc, 26 °C, organic solvent or mixture), less than 1700 µg/mL; in the data set “physchem” (EtOH, 26 °C, organic solvent or mixture), 6800 to 20500 µg/mL; in “physchem” (EtOH/H2O (19:1), 26 °C, organic solvent or mixture) it was 6600 to 19900 µg/mL; in “physchem” (IPA/ACN (1:1), 26 °C, organic solvent or mixture) it was 7000 to 21000 µg/mL. The solubility is less than 2000 µg/mL in “physchem” (IPAc, 26 °C, organic solvent or mixture); less than 2000 µg/mL in the data set “physchem” (MEK, 26 °C, organic solvent or mixture); less than 2300 µg/mL in the data set “physchem” (MIBK, 26 °C, organic solvent or mixture); less than 2100 µg/mL in “physchem” (MTBE, 26 °C, organic solvent or mixture); greater than 39600 µg/mL in the data set “physchem” (MeOH/DCM (1:1), 26 °C, organic solvent or mixture); greater than 40800 µg/mL in the data set “physchem” (MeOH/DCM (1:9), 26 °C, organic solvent or mixture). The solubility in “physchem” (MeOH/DCM (1:19), 26 °C, organic solvent or mixture) was greater than 38600 µg/mL; in “physchem” (THF, 26 °C, organic solvent or mixture) it was less than 1800 µg/mL; in “physchem” (THF/H2O (19:1), 26 °C, organic solvent or mixture) it was greater than 40400 µg/mL; in “physchem” (acetone, 26 °C, organic solvent or mixture) it was less than 2400 µg/mL; in “physchem” (isopropanol (IPA), 26 °C, organic solvent or mixture), less than 2200 µg/mL; in “physchem” (methanol, 26 °C, organic solvent or mixture), greater than 45200 µg/mL. Further, the solubility in the data set “physchem” (n-heptane, 26 °C, organic solvent or mixture) was less than 2100 µg/mL; in the data set “physchem” (toluene, 26 °C, organic solvent or mixture), less than 2200 µg/mL; in “physchem” (water, 26 °C), greater than 43000 µg/mL.

With `CCOc1cccc(-c2nc3ncc([N-]S(C)(=O)=O)nc3n2-c2c(OC)cccc2OC)n1.[K+]` [Compound I potassium salt Form A, N-(1-(2,6-dimethoxyphenyl)-2-(6-ethoxypyridin-2-yl)-1H-imidazo[4,5-b]pyrazin-6-yl)methanesulfonamide potassium salt Form A], in data set [2], the “Water uptake … (in words)” value is “No significant difference”; the “Water uptake (25° C./80% RH)” value is 3.71%; the “Form change after DVS” value was “No”.

Consider `CCOc1cccc(-c2nc3ncc([N-]S(C)(=O)=O)nc3n2-c2c(OC)cccc2OC)n1.[Na+]` [Compound I sodium salt Form A, N-(1-(2,6-dimethoxyphenyl)-2-(6-ethoxypyridin-2-yl)-1H-imidazo[4,5-b]pyrazin-6-yl)methanesulfonamide sodium salt Form A], for which the “Water uptake (25° C./80% RH)” value in data set [2] worked out at 1.13%. Moreover, in data set [2] (listed as Compound I Na salt Form A), the “Form change after DVS” value is given as “converted to a new form after DVS test; also recorded: form change was observed after DVS”. Moreover, in data set [2] (listed as Na salt Form A), the “Form change after DVS” value is reported as “Yes*”. Further, in data set [2] (setting [6]), the “Hygroscopicity (in words)” value is “exhibited hygroscopicity” and the “Stability after exposure to high humidity (in words)” value was “less stable after exposed to high humidity”.

As to `CCOc1cccc(-c2nc3ncc(NS(C)(=O)=O)nc3n2-c2c(OC)cccc2OC)n1` [Compound I free acid Form A, N-(1-(2,6-dimethoxyphenyl)-2-(6-ethoxypyridin-2-yl)-1H-imidazo[4,5-b]pyrazin-6-yl)methanesulfonamide], in data set [1] (plasma, suspension), the AUC(0-t) amounted to 13.8 µg·h/mL. Also, the Tmax in data set [1] (plasma, suspension) amounted to 4 h. This molecule showed a Cmax in data set [1] (suspension) of 983 ng/mL. The “Water uptake … (in words)” value in data set [2] and in data set [2] (listed as free acid Form A) was “lowest water uptake” each time. Moreover, the “Water uptake (25° C./80% RH)” value in data set [2] was 0.03%. In addition, the “Form change after DVS” value in data set [2] is “No”. Also, the “Solid stability: form change (XRPD) and HPLC purity” value in data set [3] is listed as “no form change or obvious HPLC purity decrease”. In addition, the solubility was 2000 to 5000 µg/mL (≈ 4.25 to 10.6 mM) in data set [5] (organic solvent or mixture, thermodynamic from solid, 1,4-dioxane); less than 1000 µg/mL in data set [5] (organic solvent or mixture, thermodynamic from solid, 2-MeTHF); 2000 to 5000 µg/mL (≈ 4.25 to 10.6 mM) in data set [5] (organic solvent or mixture, thermodynamic from solid, ACN); 5300 to 10500 µg/mL (≈ 11.3 to 22.3 mM) in data set [5] (organic solvent or mixture, thermodynamic from solid, DCM); less than 1000 µg/mL in data set [5] (organic solvent or mixture, thermodynamic from solid, EtOAc); less than 1100 µg/mL in data set [5] (organic solvent or mixture, thermodynamic from solid, EtOH). The solubility is less than 900 µg/mL in data set [5] (organic solvent or mixture, thermodynamic from solid, IPA); less than 900 µg/mL in data set [5] (organic solvent or mixture, thermodynamic from solid, MTBE); 1000 to 2100 µg/mL (≈ 2.13 to 4.46 mM) in data set [5] (organic solvent or mixture, thermodynamic from solid, MeOH); 9000 to 18000 µg/mL (≈ 19.1 to 38.3 mM) in data set [5] (organic solvent or mixture, thermodynamic from solid, THF); 2100 to 5200 µg/mL (≈ 4.46 to 11.1 mM) in data set [5] (organic solvent or mixture, thermodynamic from solid, acetone); less than 1300 µg/mL in data set [5] (organic solvent or mixture, thermodynamic from solid, n-heptane). The solubility was less than 800 µg/mL in data set [5] (organic solvent or mixture, thermodynamic from solid, toluene) and less than 1200 µg/mL in data set [5] (water, thermodynamic from solid, H2O).
